According to ChEMBL document CHEMBL1139151, “Minor groove binder antibody conjugates employing a water soluble beta-glucuronide linker” (Bioorg Med Chem Lett, 2007):
pIC50: −log10 of the molar value.

Assays:
Assay type in all cases: functional, cell-based
[1] = Cytotoxicity against CD30 positive Karpas 299 cells assessed as cell viability after 96 hrs; conditions: Homo sapiens, KARPAS-299, 96 h
[2] = system: L-428; assay: Cytotoxicity against CD30 positive and CD70 negative L428 cells assessed as cell viability after 96 hrs; conditions: Homo sapiens, L-428, 96 h
[3] = Cytotoxicity against CD30 positive L540 Cy cells assessed as cell viability after 96 hrs; conditions: Homo sapiens, L540cy
[4] = system: CAKI-1; assay: Cytotoxicity against CD70 positive Caki1 cells assessed as cell viability after 96 hrs; conditions: Homo sapiens, CAKI-1, 96 h

Q: Which results are given for `COc1ccc(/C=C/C(=O)N2CC(CCl)c3c2cc(N)c2ccccc32)cc1` (centres undefined)?
A: pIC50 [1]: 8.92; pIC50 [2]: 10.00; pIC50 [3]: 9.30; pIC50 [4]: 9.15
